Results as given in US20180051017A1, “AGENT FOR TREATMENT OF SCHIZOPHRENIA” (Sumitomo Dainippon Pharma Co., Ltd., priority 2002, published 2018).
Counter-ions that a name gives are not always drawn.

System: patients with schizophrenia in the acute exacerbation phase
Assay: First stage phase II clinical trial: safety (adverse events, serious adverse events, side effects, ECG, laboratory tests)
Format: in vivo, human
Procedure: According to the procedures as shown in Table 1 as described below, the placebo-controlled double blind experiment was done on 149 patients with schizophrenia in the acute exacerbation phase at 15 facilities in USA. The efficacy and safeness were studied when SM-13496 at a dose of 40 mg or 120 mg, or a placebo was orally administered once a day for 6 weeks after placebo washout.

[1] = 120 mg orally once a day for 6 weeks, 49 subjects

O=C1[C@@H]2[C@@H]3CC[C@@H](C3)[C@@H]2C(=O)N1C[C@@H]1CCCC[C@H]1CN1CCN(c2nsc3ccccc23)CC1 [SM-13496, (1R,2S,3R,4S)-N-[(1R,2R)-2-[4-(1,2-benzoisothiazol-3-yl)-1-piperazinyl-methyl]-1-cyclohexylmethyl]-2,3-bicyclo[2.2.1]heptanedicarboximide hydrochloride]
Number of subjects showing serious adverse events (%) [1]: 3 (6) number of subjects (%) | Number of subjects who drop out from the trial due to adverse events (%) [1]: 6 (12) number of subjects (%) | Occurrence of adverse event: Akathisia (120 mg, 6 weeks, 49 subjects): 7 (14) number of subjects (%) | Occurrence of adverse event: Digestive disturbance (120 mg, 6 weeks, 49 subjects): 2 (4) number of subjects (%) | Occurrence of adverse event: Drowsiness (120 mg, 6 weeks, 49 subjects): 5 (10) number of subjects (%) | Occurrence of adverse event: Exacerbation of schizophrenia (120 mg, 6 weeks, 49 subjects): 1 (2) number of subjects (%) | Occurrence of adverse event: Free-floating vertigo (excluding rotatory vertigo) (120 mg, 6 weeks, 49 subjects): 5 (10) number of subjects (%) | Occurrence of adverse event: Headache (120 mg, 6 weeks, 49 subjects): 3 (6) number of subjects (%) | Occurrence of adverse event: Nausea (120 mg, 6 weeks, 49 subjects): 11 (22) number of subjects (%) | Occurrence of adverse event: Suppression (120 mg, 6 weeks, 49 subjects): 7 (14) number of subjects (%) | Occurrence of serious adverse event: Exacerbation of paranoia (120 mg, 6 weeks, 49 subjects): 0 (0) number of subjects (%) | Occurrence of serious adverse event: Exacerbation of schizophrenia (120 mg, 6 weeks, 49 subjects): 1 (2) number of subjects (%) | Occurrence of serious adverse event: Paranoid schizophrenia (120 mg, 6 weeks, 49 subjects): 1 (2) number of subjects (%) | Occurrence of serious adverse event: Psychosis aggravated (120 mg, 6 weeks, 49 subjects): 0 (0) number of subjects (%) | Occurrence of side effects (%) (120 mg, 6 weeks, 49 subjects): 35 (71) number of subjects (%) | Serious adverse events: Total (%) (120 mg, 6 weeks, 49 subjects): 2 (4) number of subjects (%) | Side effect: Abdominal pain (Gastroenteric disturbance) (120 mg, 6 weeks, 49 subjects): 0 (0) number of subjects (%) | Side effect: Abnormal electrocardiogram (Laboratory assay) (120 mg, 6 weeks, 49 subjects): 0 (0) number of subjects (%) | Side effect: Abnormal liver function tests (Laboratory assay) (120 mg, 6 weeks, 49 subjects): 1 (2) number of subjects (%) | Side effect: Agitation (Mental disturbance) (120 mg, 6 weeks, 49 subjects): 1 (2) number of subjects (%) | Side effect: Agitation aggravated (Mental disturbance) (120 mg, 6 weeks, 49 subjects): 2 (4) number of subjects (%) | Side effect: Akathisia (Nervous system disorder) (120 mg, 6 weeks, 49 subjects): 7 (14) number of subjects (%) | Side effect: Akathisia aggravated (Nervous system disorder) (120 mg, 6 weeks, 49 subjects): 0 (0) number of subjects (%) | Side effect: Anarthria (Nervous system disorder) (120 mg, 6 weeks, 49 subjects): 1 (2) number of subjects (%) | Side effect: Anorexia (Metabolic disturbances and nutritional disturbance) (120 mg, 6 weeks, 49 subjects): 0 (0) number of subjects (%) | Side effect: Anxiety aggravated (Mental disturbance) (120 mg, 6 weeks, 49 subjects): 0 (0) number of subjects (%) | Side effect: Articular rigidity (Musculoskeletal system and connective tissue disorder) (120 mg, 6 weeks, 49 subjects): 0 (0) number of subjects (%) | Side effect: Blurred vision (Ocular disturbance) (120 mg, 6 weeks, 49 subjects): 1 (2) number of subjects (%) | Side effect: Breathing difficulty (Disturbance in respiratory organ, chest and mediastinum) (120 mg, 6 weeks, 49 subjects): 1 (2) number of subjects (%) | Side effect: Cervical rigidity (Musculoskeletal system and connective tissue disorder) (120 mg, 6 weeks, 49 subjects): 0 (0) number of subjects (%) | Side effect: Cogwheel rigidity (Nervous system disorder) (120 mg, 6 weeks, 49 subjects): 1 (2) number of subjects (%) | Side effect: Constipation (Gastroenteric disturbance) (120 mg, 6 weeks, 49 subjects): 0 (0) number of subjects (%) | Side effect: Decrease in appetite (Metabolic disturbances and nutritional disturbance) (120 mg, 6 weeks, 49 subjects): 1 (2) number of subjects (%) | Side effect: Diarrhea (Gastroenteric disturbance) (120 mg, 6 weeks, 49 subjects): 0 (0) number of subjects (%) | Side effect: Drowsiness (Nervous system disorder) (120 mg, 6 weeks, 49 subjects): 5 (10) number of subjects (%) | Side effect: Dry eye (Ocular disturbance) (120 mg, 6 weeks, 49 subjects): 0 (0) number of subjects (%) | Side effect: Dry mouth (Gastroenteric disturbance) (120 mg, 6 weeks, 49 subjects): 0 (0) number of subjects (%) | Side effect: Dyspepsia (Gastroenteric disturbance) (120 mg, 6 weeks, 49 subjects): 2 (4) number of subjects (%) | Side effect: Dystonic reaction (Nervous system disorder) (120 mg, 6 weeks, 49 subjects): 0 (0) number of subjects (%) | Side effect: Exacerbation of insomnia (Mental disturbance) (120 mg, 6 weeks, 49 subjects): 1 (2) number of subjects (%) | Side effect: External otitis (Infection and parasitosis) (120 mg, 6 weeks, 49 subjects): 0 (0) number of subjects (%) | Side effect: Extrapyramidal disease (Nervous system disorder) (120 mg, 6 weeks, 49 subjects): 3 (6) number of subjects (%) | Side effect: Fatigue (Total disability and local condition) (120 mg, 6 weeks, 49 subjects): 1 (2) number of subjects (%) | Side effect: Fatigue aggravated (Total disability and local condition) (120 mg, 6 weeks, 49 subjects): 0 (0) number of subjects (%) | Side effect: Flatulence (Gastroenteric disturbance) (120 mg, 6 weeks, 49 subjects): 0 (0) number of subjects (%) | Side effect: Flushing (Vascular diseases) (120 mg, 6 weeks, 49 subjects): 0 (0) number of subjects (%) | Side effect: Free-floating vertigo (excluding rotatory vertigo) (Nervous system disorder) (120 mg, 6 weeks, 49 subjects): 5 (10) number of subjects (%) | Side effect: Frequent urination (Renal Injury and urinary disorder) (120 mg, 6 weeks, 49 subjects): 0 (0) number of subjects (%) | Side effect: Glossoplegia (Nervous system disorder) (120 mg, 6 weeks, 49 subjects): 0 (0) number of subjects (%) | Side effect: Headache (Nervous system disorder) (120 mg, 6 weeks, 49 subjects): 1 (2) number of subjects (%) | Side effect: Heavy feeling (Musculoskeletal system and connective tissue disorder) (120 mg, 6 weeks, 49 subjects): 0 (0) number of subjects (%) | Side effect: Hot flashes (Vascular diseases) (120 mg, 6 weeks, 49 subjects): 1 (2) number of subjects (%) | Side effect: Hot sensation (Total disability and local condition) (120 mg, 6 weeks, 49 subjects): 0 (0) number of subjects (%) | Side effect: Increase in creatine phosphokinase level in the blood (Laboratory assay) (120 mg, 6 weeks, 49 subjects): 0 (0) number of subjects (%) | Side effect: Increase in prolactin level in the blood (Laboratory assay) (120 mg, 6 weeks, 49 subjects): 1(2) number of subjects (%) | Side effect: Increase in total protein (Laboratory assay) (120 mg, 6 weeks, 49 subjects): 0 (0) number of subjects (%) | Side effect: Insomnia (Mental disturbance) (120 mg, 6 weeks, 49 subjects): 1 (2) number of subjects (%) | Side effect: Laryngopharynx pain (Disturbance in respiratory organ, chest and mediastinum) (120 mg, 6 weeks, 49 subjects): 0 (0) number of subjects (%) | Side effect: Loose stools (Gastroenteric disturbance) (120 mg, 6 weeks, 49 subjects): 1 (2) number of subjects (%) | Side effect: Melalgia (Musculoskeletal system and connective tissue disorder) (120 mg, 6 weeks, 49 subjects): 1 (2) number of subjects (%) | Side effect: Muscle stiffness (Musculoskeletal system and connective tissue disorder) (120 mg, 6 weeks, 49 subjects): 1 (2) number of subjects (%) | Side effect: Myalgic pain (Musculoskeletal system and connective tissue disorder) (120 mg, 6 weeks, 49 subjects): 1 (2) number of subjects (%) | Side effect: Nausea (Gastroenteric disturbance) (120 mg, 6 weeks, 49 subjects): 9 (18) number of subjects (%) | Side effect: Nightmare (Mental disturbance) (120 mg, 6 weeks, 49 subjects): 1 (2) number of subjects (%) | Side effect: Palpitation (Heart problems) (120 mg, 6 weeks, 49 subjects): 1 (2) number of subjects (%) | Side effect: Parotiditis (Infection and parasitosis) (120 mg, 6 weeks, 49 subjects): 0 (0) number of subjects (%) | Side effect: Polyuria (Renal Injury and urinary disorder) (120 mg, 6 weeks, 49 subjects): 0 (0) number of subjects (%) | Side effect: Pruritus (Disturbance in Skin and Hypodermis) (120 mg, 6 weeks, 49 subjects): 0 (0) number of subjects (%) | Side effect: Psychosis aggravated (Mental disturbance) (120 mg, 6 weeks, 49 subjects): 2 (4) number of subjects (%) | Side effect: Restlessness (Mental disturbance) (120 mg, 6 weeks, 49 subjects): 1 (2) number of subjects (%) | Side effect: Salivary hypersecretion (Gastroenteric disturbance) (120 mg, 6 weeks, 49 subjects): 0 (0) number of subjects (%) | Side effect: Sinus tachycardia (Heart problems) (120 mg, 6 weeks, 49 subjects): 1 (2) number of subjects (%) | Side effect: Sleepiness (Total disability and local condition) (120 mg, 6 weeks, 49 subjects): 2 (4) number of subjects (%) | Side effect: Suppression (Nervous system disorder) (120 mg, 6 weeks, 49 subjects): 7 (14) number of subjects (%) | Side effect: Tinea pedis (Infection and parasitosis) (120 mg, 6 weeks, 49 subjects): 1 (2) number of subjects (%) | Side effect: Tongue disturbance (Gastroenteric disturbance) (120 mg, 6 weeks, 49 subjects): 0 (0) number of subjects (%) | Side effect: Tremor (Nervous system disorder) (120 mg, 6 weeks, 49 subjects): 3 (6) number of subjects (%) | Side effect: Trismus (Nervous system disorder) (120 mg, 6 weeks, 49 subjects): 1 (2) number of subjects (%) | Side effect: Urinary tract infection (Infection and parasitosis) (120 mg, 6 weeks, 49 subjects): 0 (0) number of subjects (%) | Side effect: Vomiting (Gastroenteric disturbance) (120 mg, 6 weeks, 49 subjects): 3 (6) number of subjects (%) | Side effect: Weight loss (Laboratory assay) (120 mg, 6 weeks, 49 subjects): 2 (4) number of subjects (%) | Akathisia (adverse event) (120 mg-treated group): 14% | Digestive disturbance compared to the placebo-treated group (120 mg-treated group): less observed | Exacerbation of schizophrenia (adverse event) (120 mg-treated group): 2% | Nausea compared to the other groups (120 mg-treated group): more observed | Ratio of the subjects showing suppression (120 mg-treated group): 14% | Serious adverse events (120 mg-treated group): 2 cases | Change in body temperature, respiration rate, funduscopic examination and slit-lamp microscopy (SM-13496-treated groups): no clinically significant change | Occurrence of dystonic reaction (SM-13496-treated groups): less than 4% | Prolactin level in the blood (SM-13496-treated groups): moderate increase | Number of subjects who dropped out from the trial due to the adverse events compared to placebo (both groups treated by two doses): higher | Occurrence of the adverse events compared to placebo (groups treated by SM-13496): the same as that in the placebo-treated group
